Reference: patent publication US4760052A, “1,6-dicarba-vasopressin compounds” (Smithkline Beckman Corporation, priority 1987, dated 1988)
*1 amine or outer side, *2 acyl side, *3 side chain or, on linkers, in order; H or OH if unused. Where a SMILES comes first, the peptide text is derived from it. Bridges are numbered along the chain shown (N, C = ends). [ ]: non-standard residue; d: D form. X1 = O=C(CC1(S[*:2])CCCCC1)[*:1]

What was measured:
[1] = target: vasopressin receptors (V2 -receptors) (Sus scrofa, UniProt P32307); experiment: biochemical
Chain of vasopressin receptors (V2 -receptors) (P32307 whole entry): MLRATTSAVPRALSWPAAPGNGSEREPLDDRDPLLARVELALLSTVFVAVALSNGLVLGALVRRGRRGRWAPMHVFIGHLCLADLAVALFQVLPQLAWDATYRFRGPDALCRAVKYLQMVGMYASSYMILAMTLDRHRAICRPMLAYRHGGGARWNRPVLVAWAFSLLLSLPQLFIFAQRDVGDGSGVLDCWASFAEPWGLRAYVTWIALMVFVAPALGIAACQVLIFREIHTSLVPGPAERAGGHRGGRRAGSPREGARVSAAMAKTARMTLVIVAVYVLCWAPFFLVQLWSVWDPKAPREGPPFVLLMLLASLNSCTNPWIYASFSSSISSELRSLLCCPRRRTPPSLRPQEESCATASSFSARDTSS
Experimental: Antagonistic activity toward the natural anti-diuretic hormone (anti ADH activity) is determined, in vitro, in the medullary tissue of hog or human kidneys and, in vivo, in the hydropenic rat.
These values represent total and non specific binding, respectively.

[2] = target: vasopressin stimulated adenylate cyclase; experiment: vasopressin stimulated adenylate cyclase activity, kidney medullary membrane; type: biochemical; details: Swine; antagonism of vasopressin stimulated adenylate cyclase
Experimental: In the test procedure for assay of adenylate cyclase activity, the amount of ^32 P/cAMP formed in the absence of medullary membrane is determined (blank). The blank value is subtracted from all experimental data. The compound is tested for its effect on basal adenylate cyclase activity and/or on vasopressin stimulated activity. Each determination is carried out in triplicate. The Ka value is derived from a Lineweaver-Burkeplot. Rel. Vmax =(Vmax drug/Vmax vasopressin) x 100. Ki =I/[Ka'/Ka)-1] where I is the concentration of the antagonist and Ka' and Ka are the concentrations of vasopressin required to give half maximal activity of adenylate cyclase in the presence and absence of antagonist, respectively.

hydropenic rat = experiment: Hydropenic Rat Screen (anti-ADH activity in vivo); details: intraperitoneal, dose required to lower urine osmolality to 300 m-Osmoles/kg
Experimental: The assay for anti-ADH activity in vivo is the hydropenic rat protocol described below:
Food and water are removed from male rats approximately 18 hours prior to testing. Animals are housed 4 per metabolism cage. At 0 hour, the test compound is administered intraperitoneally to the test group and an equivalent volume of vehicle is administered to both control groups (fasted and non-fasted). Urine volume and osmolality are measured every hour for 4 hours. Test values are recorded as ml of urine excreted (cumulative), mEg/rat electrolyte excreted, mg/rat urea excreted, and osmolality in milli-Osmoles/kg H2 O. A […] is used to determine significance. ED300 is defined as the dose of compound (μg/kg) required to lower urine osmolality to 300 m-Osmoles/kg.

Ki [2] | Structure (SMILES) | Kb [1] | ED300 (hydropenic rat)
– | CCOc1ccc(C[C@H]2NC(=O)CC3(CCCCC3)CCC[C@H](C(=O)N3CCC[C@H]3C(=O)N[C@@H](CCCNC(=N)N)C(N)=O)NC(=O)[C@H](CC(N)=O)NC(=O)[C@H](C(C)C)NC(=O)[C@H](Cc3ccccc3)NC2=O)cc1 [Compound D, [1,6(6,6-cyclopentamethylene-2-amino-D-suberic acid)2-(O--ethy1D-tyrosine)-4-valine-9-desglycine]vasopressin] | 0.072 µM | –
0.0043 µM | CCOc1ccc(C[C@H]2NC(=O)CC3(CCCCC3)CCC[C@@H](C(=O)N3CCC[C@H]3C(=O)N[C@@H](CCCNC(=N)N)C(N)=O)NC(=O)[C@H](CC(N)=O)NC(=O)[C@H](C(C)C)NC(=O)[C@H](Cc3ccccc3)NC2=O)cc1 [Compound C, [1,6(6,6-cyclopentamethylene-2-amino-L-suberic acid)2-(O--ethylD-tyrosine)-4-valine-9-desglycine]vasopressin] | 0.0082 µM | 8.9 µg/kg
– | CCOc1ccc(C[C@H]2NC(=O)CC3(CCCCC3)SSC[C@H](C(=O)N3CCC[C@H]3C(=O)N[C@@H](CCCNC(=N)N)C(N)=O)NC(=O)[C@H](CC(N)=O)NC(=O)[C@H](C(C)C)NC(=O)[C@H](Cc3ccccc3)NC2=O)cc1 [B, reference compound] ([dY](Et)FVN[dC]PR-NH2; linker N-5 via X1) | 0.17 µM | –
– | CCOc1ccc(C[C@H]2NC(=O)CC3(CCCCC3)SSC[C@@H](C(=O)N3CCC[C@H]3C(=O)N[C@@H](CCCNC(=N)N)C(N)=O)NC(=O)[C@H](CC(N)=O)NC(=O)[C@H](C(C)C)NC(=O)[C@H](Cc3ccccc3)NC2=O)cc1 [A, [1(mercapto-β,cyclopentamethylenepropionic acid)2-(O--ethylD-tyrosine)-4-valine-8-arginine-9-desglycine]vasopressin, reference compound] ([dY](Et)FVNCPR-NH2; linker N-5 via X1) | 0.012 µM | –
